The subject of experiment [1] is IFN-α secretion, peripheral blood mononuclear cells (PBMCs). The experiment in a line: Suppression of IFN-α secretion in ODN2216-treated PBMCs (ELISA). The format is cell-based. Particulars: PBMC, 500 nM ODN2216, 72 hours, read-out: IFN-α, % inhibition degree. As for the experimental part:
(§1) Peripheral blood mononuclear cells (PBMCs) isolated from whole blood were distributed in a 96-well plate. TNF-α was aliquoted at a density of 1×10^5 cells/well, IFN-α was aliquoted at a density of 2×10^5 cells/well, and TNF-α and IFN-α were treated with a compound diluted to 4-fold of a final concentration and totally cultured for 30 minutes. TNF-α was treated with 100 ng/ml lipopolysaccharide (LPS), IFN-α was treated with 500 nM ODN2216 (CpGTLR9 stimulator), and TNF-α and IFN-α were further cultured for 24 hours and 72 hours, respectively. An enzyme-linked immunosorbent assay (ELISA) was performed on TNF-α and IFN-α using an ELISA kit manufactured by BD Biosciences and an ELISA kit manufactured by PBL Assay Science, Inc., respectively. A cell supernatant and a standard drug were put into the ELISA plates and reacted for 2 hours. The plates were washed and a measurement antibody and streptavidin-HRP were sequentially added thereto. After the plates were washed, a TMB substrate was added thereto and reacted in a dark place. The reaction was stopped by adding a stop solution thereto, and the absorbance at 450 nm and 570 nm was measured using an absorber (OPTIMax tunable microplate reader, molecular devices). The experimental results are shown in [Table 2].

In experiment [2] the test system is TNF-α secretion, peripheral blood mononuclear cells (PBMCs). The experiment in a line: Suppression of TNF-α secretion in LPS-treated PBMCs (ELISA). Type of experiment: cell-based. Particulars: PBMC, 100 ng/ml LPS, 24 hours, read-out: TNF-α, % inhibition degree. The protocol: as §1
Experiment [3] deals with ISG promoter, THP1-Lucia™ ISG cell line. The experiment in a line: ISG promoter inhibition, THP1-Lucia ISG cell line. Type of experiment: cell-based. Particulars: 1 μg/ml Poly(dA:dT)/LyoVec, 24 hours, read-out: ISG, % inhibition degree. As for the experimental part:
(§2) A THP1-Lucia™ NF-κB cell line (Invivogen) was used in an NF-κB inhibition experiment, and a THP1-Lucia™ ISG cell line was used in an ISG inhibition experiment. In the NF-κB inhibition experiment, cells were planted at a density of 1×10^4 cells/well in a 96-well plate, and in the ISG inhibition experiment, cells were planted at a density of 2×10^4 cells/well in a 96-well plate. The cells were treated with a compound diluted to 4-fold of a final concentration, and totally cultured for 30 minutes. NF-κB was treated with 100 ng/ml lipopolysaccharide (LPS), ISG was treated with a stimulator of 1 μg/ml Poly(dA:dT)/LyoVec, and NF-κB and ISG were cultured for 24 hours. 10 μl of a cell supernatant was taken and transferred to a 96-well plate. 50 μl of a Quanti-luc solution was aliquoted using an automatic aliquoter of a measurer (Envision Multilabel Plate Reader, Perkin Elmer, Inc.), and light emission signals were measured.

The test system of experiment [4] is NF-κB promoter, THP1-Lucia™ NF-κB cell line. As to the kind of experiment: NF-κB promoter inhibition, THP1-Lucia NF-κB cell line. Type of experiment: cell-based. Particulars: 100 ng/ml LPS, 24 hours, read-out: NF-κB, % inhibition degree. The protocol: as §2
The next experiment addresses T1, IRAK4 enzyme (Homo sapiens, UniProt Q9NWZ3).
T1 sequence (Q9NWZ3 1-460): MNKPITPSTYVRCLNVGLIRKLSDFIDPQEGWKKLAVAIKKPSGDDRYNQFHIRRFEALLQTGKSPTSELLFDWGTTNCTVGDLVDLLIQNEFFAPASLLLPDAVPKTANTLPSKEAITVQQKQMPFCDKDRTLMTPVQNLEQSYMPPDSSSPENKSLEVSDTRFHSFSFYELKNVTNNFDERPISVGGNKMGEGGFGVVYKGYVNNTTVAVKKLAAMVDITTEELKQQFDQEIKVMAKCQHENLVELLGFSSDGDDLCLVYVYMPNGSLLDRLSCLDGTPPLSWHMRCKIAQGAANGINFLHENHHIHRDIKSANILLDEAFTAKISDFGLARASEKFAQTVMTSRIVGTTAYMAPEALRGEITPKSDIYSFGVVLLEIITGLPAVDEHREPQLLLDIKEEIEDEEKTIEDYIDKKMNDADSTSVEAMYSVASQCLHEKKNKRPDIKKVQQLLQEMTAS
As to the kind of experiment: IRAK4 enzyme inhibition degree (bead-based kinase assay, peptide substrate BMKC-2, 100 μM ATP). Type of experiment: biochemical. Particulars: for inhibition at 1 µM: compound 1 μM. Summed up: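 IRAK4 (0.4 ng/μl stock) preincubated 10 min with compound, then 6 μM BMKC-2 peptide with 100 μM ATP (mix concentrations) for 60 min at room temperature; EDTA stop. Phospho-Thr antibody with AlphaScreen donor/acceptor beads detected product; % inhibition versus controls, IC50 by non-linear regression.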

Where only a bound is given, the exact number is not on record here.

For the compound `Fc1ccc(-c2ccc3[nH]c4ncnc(N[C@H]5CC[C@H](N6CCOCC6)CC5)c4c3c2)cc1` [Compound 6aan, 6-(4-fluorophenyl)-N-(trans-4-morpholinocyclohexyl)-9H-pyrimido[4,5-b]indole-4-amine], the inhibition at 0.1 µM in experiment [1] was 28%; in experiment [2], 9%; in experiment [3] it was below 1%; in experiment [4], below 1%. Further, the inhibition at 1 µM came out at 71% in experiment [1]; 32% in experiment [2]; 6% in experiment [3]; 28% in experiment [4]; 82% on IRAK4 enzyme. The same compound had an IC50 at IRAK4 enzyme of 61 nM.

Consider `CN(C)[C@H]1CC[C@H](Nc2ncnc3[nH]c4ccc(-c5cncc(F)c5)cc4c23)CC1` [Compound 6aba, trans-N1-(6-(5-fluoropyridin-3-yl)-9H-pyrimido[4,5-b]indol-4-yl)-N4,N4-dimethylcyclohexane-1,4-diamine], for which the inhibition at 0.1 µM in experiment [1] worked out at 3.4%; in experiment [2], 39.1%; in experiment [3], 33%; in experiment [4], 40%. Moreover, the inhibition at 1 µM in experiment [1] stood at 81.3%; in experiment [2] it was 73.3%; in experiment [3], 83%; in experiment [4], 87%; at IRAK4 enzyme it was 83%. Also, the IC50 against IRAK4 enzyme stood at 4 nM.

Turning to `Cn1cc(-c2ccc3[nH]c4ncnc(N[C@H]5CC[C@H](N(C)C)CC5)c4c3c2)cn1` [Compound 6abb, trans-N1,N1-dimethyl-N4-(6-(1-methyl-1H-pyrazol-4-yl)-9H-pyrimido[4,5-b]indol-4-yl)cyclohexane-1,4-diamine], the inhibition at 0.1 µM in experiment [1] was found to be 54%; in experiment [2], 17.9%; in experiment [3] it was 42%; in experiment [4], 50%. Further, the inhibition at 1 µM in experiment [1] was found to be 90.4%; in experiment [2], 79.4%; in experiment [3], 73%; in experiment [4] it was 83%; against IRAK4 enzyme, 82%. On IRAK4 enzyme, the midpoint of inhibition, the IC50, lay at 10 nM.

`Cn1cc(-c2ccc3[nH]c4ncnc(N[C@H]5CC[C@H](N6CCN(S(C)(=O)=O)CC6)CC5)c4c3c2)cn1` [Compound 6aca, 6-(1-methyl-1H-pyrazol-4-yl)-N-(trans-4-(4-(methylsulfonyl)piperazin-1-yl)cyclohexyl)-9H-pyrimido[4,5-b]indole-4-amine]: the inhibition at 0.1 µM in experiment [1] is 40%; in experiment [2] it was 29%; in experiment [3], 23%; in experiment [4] it was 28%. In addition, the inhibition at 1 µM turned out to be 99% in experiment [1]; 107% in experiment [2]; 73% in experiment [3]; 85% in experiment [4]; 100% on IRAK4 enzyme. Besides, the IC50 against IRAK4 enzyme came out at 13.8 nM.

As for `Cn1cc(-c2ccc3[nH]c4ncnc(Nc5ccc(N6CCNCC6)cc5)c4c3c2)cn1` [Compound 6agaa, 6-(1-methyl-1H-pyrazol-4-yl)-N-(4-(piperazin-1-yl)phenyl)-9H-pyrimido[4,5-b]indole-4-amine], the inhibition at 0.1 µM in experiment [1] was 39%; in experiment [2], 17%; in experiment [3] it was 7%; in experiment [4], below 1%. Also, the inhibition at 1 µM in experiment [1] was found to be 65%; in experiment [2], 27%; in experiment [3], 16%; in experiment [4] it was 24%; at IRAK4 enzyme, 36%. It took 1140 nM to reach half-maximal inhibition against IRAK4 enzyme (IC50).

With `c1cc(-c2ccc3[nH]c4ncnc(Nc5ccc(N6CCNCC6)cc5)c4c3c2)ccn1` [Compound 6agba, N-(4-(piperazin-1-yl)phenyl)-6-(pyridin-4-yl)-9H-pyrimido[4,5-b]indole-4-amine], the inhibition at 0.1 µM is 56% in experiment [1], 26% in experiment [2], 6% in experiment [3] and below 1% in experiment [4]. Further, the inhibition at 1 µM in experiment [1] is 74%; in experiment [2], 87%; in experiment [3], 8%; in experiment [4], 6%; against IRAK4 enzyme, 42%. Moreover, the IC50 against IRAK4 enzyme is 1190 nM.

With `c1cc(-c2ccc3c(c2)[nH]c2ncnc(N[C@H]4CC[C@H](N5CCOCC5)CC4)c23)ccn1` [Compound 6caa, N-(trans-4-morpholinocyclohexyl)-7-(pyridin-4-yl)-9H-pyrimido[4,5-b]indole-4-amine], the inhibition at 0.1 µM came to 40% in experiment [1], 5% in experiment [2], 1% in experiment [3] and 5% in experiment [4]. Further, the inhibition at 1 µM in experiment [1] is 60%; in experiment [2] it was 40%; in experiment [3] it was 10%; in experiment [4], 10%; against IRAK4 enzyme, 50%. The compound further came in with an IC50 at IRAK4 enzyme of 1360 nM.

Turning to `Cn1cc(-c2ccc3[nH]c4nccc(N[C@H]5CC[C@H](N6CCOCC6)CC5)c4c3c2)cn1` [Compound 17a], the inhibition at 0.1 µM in experiment [1] was 67%; in experiment [2] it was 22%; in experiment [3] it was 14%; in experiment [4], 31%. For the same compound, the inhibition at 1 µM in experiment [1] is 103%; in experiment [2], 75%; in experiment [3], 93%; in experiment [4], 78%; against IRAK4 enzyme, 100%.

For `COc1cncc(-c2ccc3[nH]c4nccc(N[C@H]5CC[C@H](N6CCOCC6)CC5)c4c3c2)c1` [Compound 17b, 6-(5-methoxypyridin-3-yl)-N-(trans-4-morpholinocyclohexyl)-9H-pyrimido[2,3-b]indole-4-amine], the inhibition at 0.1 µM in experiment [1] turned out to be 76%; in experiment [2], 12%; in experiment [3], 4%; in experiment [4] it was 14%. For the same compound, the inhibition at 1 µM in experiment [1] came out at 110%; in experiment [2], 63%; in experiment [3], 80%; in experiment [4], 62%; against IRAK4 enzyme it was 100%. The compound also returned an IC50 against IRAK4 enzyme of 7.2 nM.

As for `COc1cncc(-c2ccc3[nH]c4nccc(N[C@H]5CC[C@H](N6CCN(S(C)(=O)=O)CC6)CC5)c4c3c2)c1` [Compound 17c], the inhibition at 0.1 µM in experiment [1] was 23%; in experiment [2], 7%; in experiment [3], 2%; in experiment [4] it was 2%. The inhibition at 1 µM in experiment [1] came to 99%; in experiment [2], 88%; in experiment [3] it was 52%; in experiment [4] it was 53%; on IRAK4 enzyme, 100%. The compound also gave an IC50 at IRAK4 enzyme of 32.6 nM.

For the origin of these results see patent publication US12378250B2, “Tricyclic compound as IRAK4 inhibitor” (KOREA RESEARCH INSTITUTE OF CHEMICAL TECHNOLOGY, priority 2018, dated 2025).
